# Data as given in US20240197876A1, “METHODS TO DETERMINE TREATMENT EFFICACY WITH GAMMA-DELTA T CELLS” (THE TRUSTEES OF THE UNIVERSITY OF PENNSYLVANIA, priority 2021, published 2024).
# “Also recorded” adds a separate entry of the source.
# How the values were obtained:
# [1] = system: Vδ2 T cells; experiment: Vδ2 T cell expansion from cultured PBMCs (γδTCR activator with or without TLR agonist), FACS; assay type: cell-based, human; conditions: for co-stimulatory effect on IPP induced Vδ2 T cell expansion: IPP 5 μg/ml plus TLR agonist, day 5 or 7
# Experimental: Primary cells and cell lines: PBMCs and monocytes were obtained from Human Immunology Core at the University of Pennsylvania, which were obtained from healthy donors-Using informed consent and approved by Institutional Review Board. For γδ T cell expansion, PBMCs were cultured with RPMI1640 media supplemented with 10% FBS (HyClone, GE Healthcare, UT, USA), 100 U/ml Penicillin-Streptomycin, 2 mM L-Glutamine, 1/1000 2-Mercaptoethanol (2-Me) (Gibco, ThermoFisher Scientific, MA, USA) (or without 2-Me as indicated) and 200 units/ml of Recombinant Human IL-2 (PeproTech, NJ, USA) in 24-well microplates, new media added and supplemented every other day. TCR-γδ T cells were expanded in 24-well tissue culture treated microplates that were coated with mouse-monoclonal Anti-Pan-TCR γδ antibody (1.0 ug/ml in PBS; IMMU510, IM1349, Beckman). For naive γδT cell isolation, PBMCs were purified using a commercial Human TCR γ/δ T Cell Isolation Kit (Miltenyi Biotec, Germany). […] Human melanoma cell lines A375, A2058, WM9, 903 were obtained from Meenhard Herlyn's laboratory (The Wistar Institute, Philadelphia, PA, USA) and they were routinely tested for mycoplasma and DNA fingerprinted (Liu, et al., 2018, Nat Commun 9: 5426). Lung cancer cell line H1975, Colon cancer cell line HT-29, Gastric cancer cell line NCI-N87 were purchased from ATCC. Daudi cells were obtained from Andrei Thomas-Tikhonenko Lab at the University of Pennsylvania and Children's Hospital of Philadelphia, K562 cells were obtained from Michael Milone Lab at the University of Pennsylvania. BRAFi and MEKi combination therapy resistant (CR) cell lines WM9-CR and A2058-CR were generated as described before (Lu, et al., 2017, Nature 550: 133-136).
# Flow cytometry: PBMCs and γδ T cell phenotypes were analyzed by flow cytometry. Briefly, single-cell suspensions were surface-stained for 30 min at 4° C. in dark, and […] staining was performed for 60 min after fixation and permeabilization using a True-Nuclear™ Transcription Factor Buffer Set (BioLegend, CA, USA). CFSE Cell Proliferation Kit for flow cytometry was purchased from Invitrogen (ThermoFisher Scientific, MA, USA). Fluorescein-conjugated antibodies were used. Data were acquired on LSRA/B or Fortessa B flow cytometers (BD Biosciences, NJ, USA) at Flow Cytometry and Cell Sorting Resource Laboratory at the University of Pennsylvania and analyzed with FlowJo software (Tree Star, Ashland, OR).
# [2] = system: γδ T cells; experiment: Expansion of γδ T cells ex vivo from PBMC with ZOL or anti-γδTCR Ab plus IL-2; assay type: cell-based, human
# Experimental: Expansion of γδ T cells ex vivo. PBMC were plated at 2×10^6 cells per well in 24-well flat-bottomed plates at 37° C. in a humidified atmosphere of 5% CO2. The standard culture medium contains RPMI 1640 (Gibco), containing 10% FBS (Gibco), 2 mM L-glutamine (Gibco), 100 U/ml penicillin (Gibco), streptomycin (Gibco) and 200 IU/ml IL-2 (PeproTech, Rocky Hill, NJ) (Castella et al., Nature communications. 2017; 8:15663.) 5 μM zoledronic acid (Sigma-Aldrich, St. Louis, MO USA) was added into the culture medium at the first day and the medium containing IL-2 changed every two days. In some cases, 24-well plates were pre-coated with 0.5 μg/ml anti-γδTCR Ab (Immunotech, Beckman Coulter, Fullerton, CA) and then PBMCs were added to the anti-γδTCR Ab-coated wells and cultured in the standard culture medium mentioned above. The viability and cell number of γδ T cells were evaluated by the trypan blue staining assay, and the percentage of γδ T cells counted by flow cytometry (Ryan et al., Proc NatlAcadSci USA. 2016; 113(50):14378-83).
# Antibodies and flow cytometry analyses. […] Samples were acquired using a LSR-A flow cytometer (BD Biosciences, Baltimore, MD) and analyzed using FlowJo software (Tree Star Inc., Ashland, OR).
# [3] = system: Vδ2 T cells in Hu-Mice; experiment: Vδ2 T cell expansion from PBMCs of humanized mice; assay type: cell-based; conditions: PBMCs from four Hu-Mice, 10 days
# Text: Humanized Mice (Hu-Mice): Humanized mice were generated at the Wistar Institute as described (Somasundaram, et al., 2021, Nat Commun 12: 346). Briefly, the humanized mouse model is developed by reconstituting immunodeficient NSG mice with fetal liver-derived CD34+ human hematopoietic stem cells, grafted intravenously, and autologous fetal thymus chunks, grafted under the renal capsule, to promote rapid human T-cell differentiation.
# NSG mice engrafted with human hematopoietic stem (CD34+) cells or peripheral blood leukocytes (Hu-Mice) are a useful tool to study immunotherapy (Somasundaram, et al., 2021, Nat Commun 12: 346). However, it was previously unclear whether these mice have functional human γδ T cells. As shown herein, CD3^+VS2^+ T cells are present in the PBMCs of Hu-Mice (FIG. 32A). PBMCs from four Hu-Mice were cultured using human PBMCs culture media and were stimulated with IPP plus resiquimod, or ZOL, for 10 days.
# [4] = system: UACC903 and A2058 melanoma cells; experiment: Cytotoxicity and 3-D tumor spheroid assays with γδ T cells expanded by ZOL or anti-γδTCR antibody; assay type: cell-based, human
# Experimental: Cytotoxicity assays. The CytoTox 96® Non-Radioactive Cytotoxicity Assay (Promega, Madison, WI) was applied to measure the cytotoxicity of expanded Vγ9Vδ2 T cells. In this respect, A375 (2×10^4 cells/well), A2058 (2×10^4 cells/well), and 903 (2×10^4 cells/well) melanoma cells were used as target cells and seeded into a 96-round well plate, and expanded Vγ9Vδ2 T cells (1×10^5 cells/well) served as effector cells were directly added to individual wells incubated overnight. The supernatants were collected and the lactate dehydrogenase activity was detected. Controls for spontaneous lactate dehydrogenase release from effector and target cells, the target maximum release, as well as the culture medium background were measured simultaneously (Zhou et al., Cell Mol Immunol. 2012; 9(1):34-44).
# 3-D Spheroid Assays. The 96-well plate was pre-coated with 50 μL 1.5% Agarose (LONZA, Rockland, ME). Melanoma cells (A2058 and UACC 903 cells) were labeled with CellTracker™ Orange CMRA Dye (Thermo Fisher Scientific, Waltham, MA) and seeded at 2×10^4 cells/well and allowed to form spheroids over 48 hours. […] Infiltrated spheroids were analyzed at 48 h using confocal microscope (Leica, Wetzlar, Germany). Spheroids were divided into single cells and CFSE+ cells infiltrating the spheroids was counted by flow cytometry.
# [5] = system: purified γδ T cells; experiment: CFSE proliferation of purified naive γδ T cells; assay type: cell-based, human; conditions: ZOL+PBMCs group, same-donor PBMCs not labeled
# Experimental: Primary cells and cell lines: PBMCs and monocytes were obtained from Human Immunology Core at the University of Pennsylvania, which were obtained from healthy donors-Using informed consent and approved by Institutional Review Board. For γδ T cell expansion, PBMCs were cultured with RPMI1640 media supplemented with 10% FBS (HyClone, GE Healthcare, UT, USA), 100 U/ml Penicillin-Streptomycin, 2 mM L-Glutamine, 1/1000 2-Mercaptoethanol (2-Me) (Gibco, ThermoFisher Scientific, MA, USA) (or without 2-Me as indicated) and 200 units/ml of Recombinant Human IL-2 (PeproTech, NJ, USA) in 24-well microplates, new media added and supplemented every other day. TCR-γδ T cells were expanded in 24-well tissue culture treated microplates that were coated with mouse-monoclonal Anti-Pan-TCR γδ antibody (1.0 ug/ml in PBS; IMMU510, IM1349, Beckman). For naive γδT cell isolation, PBMCs were purified using a commercial Human TCR γ/δ T Cell Isolation Kit (Miltenyi Biotec, Germany). Purified naive γδ T cells routinely exceeded >95% […] by flow cytometry. […]
# Flow cytometry: PBMCs and γδ T cell phenotypes were analyzed by flow cytometry. […] Data were acquired on LSRA/B or Fortessa B flow cytometers (BD Biosciences, NJ, USA) at Flow Cytometry and Cell Sorting Resource Laboratory at the University of Pennsylvania and analyzed with FlowJo software (Tree Star, Ashland, OR).
# [6] = system: gastric, colon and lung cancer cells; experiment: LDH release cytotoxicity of expanded γδ T cells to epithelial cancer cell lines; assay type: cell-based, human; conditions: E:T 5:1; resiquimod 10 μg/ml
# [7] = system: melanoma cells; experiment: LDH release cytotoxicity of expanded γδ T cells to melanoma cell lines; assay type: cell-based, human; conditions: E:T 5:1
# Experimental: Cytotoxicity: Cytotoxicity of γδ T cells against melanoma cells was measured by lactate dehydrogenase (LDH) release using the CytoTox 96® Non-Radioactive Cytotoxicity Assay kit (G1780, Promega, WI, USA) as described (Zhu, et al., 2016, Molecular Medicine 22: 737-746). Briefly, Melanoma cells were seeded at 4×10^4 cells/well in 50 μl standard growth medium in 96-well plates, while γδ T cells were seeded at effective target ratio E:T=5:1 in the same volume of PBMC culture media at the same time. After the indicated time, plates were spin down briefly and 50 μl supernatants were then harvested for further analysis. Absorbance at 490 nm was read using a BioTek Synergy HT reader (BioTek Instruments, VT, USA) after LDH activity detection, the percentage of cytotoxicity was calculated as (Experimental-Effector Spontaneous-Target Spontaneous)/(Target Maximum-Target Spontaneous)×100.
# [8] = system: monocytes
# Experimental: FIG. 30C provides data for purified monocytes cultured with resiquimod for 24 h with indicated concentration, and the viability and mortality were detected with Annexin V/7-AAD apoptosis kit and flow cytometry.
compound,measurement,setting,value
OCCS [2-mercaptoethanol],effect of antioxidant in the culture medium on Vδ2 T cell expansion,"[1]; IPP plus resiquimod, 8 days, medium with or without 2-Me",did not affect Vδ2 T cell expansion
NC(=O)[C@H]1CCS[C@@H]2C[C@]3(CCCN3C(=O)Cc3ccc(NC(=O)COc4ccc(Cl)cc4Cl)cc3)C(=O)N12 [ST2825],effect of MyD88 inhibition on resiquimod co-stimulation of Vδ2 T cell expansion,[1]; PBMCs with IPP or IPP plus resiquimod,eliminated the co-stimulatory function of resiquimod
"O=P(O)(O)C(O)(Cn1ccnc1)P(=O)(O)O [ZOL, zoledronate]",γδ T cell subsets expanded,[2]; PBMCs expanded by ZOL or anti-TCRγδ Ab,preferentially expanded Vδ2 cells
same,"γδ T cell expansion, ZOL compared with anti-γδTCR antibody","[2]; PBMCs of healthy donors, 10 day expansion with IL-2",significantly better than that of anti-γδT TCR antibody; also recorded: better expansion of γδ T cells than anti-γδTCR antibody
same,expansion of peripheral Vδ2 T cells in Hu-Mice,[3],approximately a thousand-fold expansion
same,cytotoxicity of tumor spheroid assays,[4],comparable results
same,Vδ2 T cell (CFSE+) proliferation when PBMCs were added to the culture system,[5],regained the capability of inducing Vδ2 T cells (CFSE+) proliferation
CCNCc1nc2c(N)nc3ccccc3c2n1CC(C)(C)O [gardiquimod],co-stimulatory effect on IPP induced Vδ2 T cell expansion,[1]; PBMCs,promoted Vδ2 T cell expansion
CC(C)Cn1cnc2c(N)nc3ccccc3c21 [imiquimod],co-stimulatory effect on IPP induced Vδ2 T cell expansion,[1]; PBMCs,promoted Vδ2 T cell expansion
CCOCc1nc2c(N)nc3ccccc3c2n1CC(C)(C)O [resiquimod],cytotoxic effect of γδ T cells expanded using pan-anti-γδTCR antibody to epithelial cancer cells,[6],significantly enhanced the cytotoxic effect
same,cytotoxic effect of γδ T cells expanded using pan-anti-γδTCR antibody to melanoma cell lines,"[7]; A375, 12051u, 903, A2058, WM9, A2058CR, WM9CR, resiquimod 10 μg/ml",significantly enhanced the cytotoxic effect
same,cytotoxic effect of γδ T cells expanded using IPP,"[7]; A375 and A2058, about 13 days expansion with or without resiquimod",significantly enhanced the cytotoxic effect
same,apoptosis and cell death of monocytes,[8],induced apoptosis and cell death in some monocytes
same,efficacy and cytotoxicity compared among three TLR7/8 agonists,"[1]; co-stimulation with IPP, PBMCs, day 7",best efficacy with the least cytotoxicity
CCC(=O)N1CCN(c2ccc(-n3c(=O)ccc4cnc5ccc(-c6cnc7ccccc7c6)cc5c43)cc2C(F)(F)F)CC1 [torin1],expansion of Vδ2 T cells induced by IPP in presence of mTOR inhibitor,[1]; PBMCs with IPP,significantly reduced
same,"inhibition of Vδ2 T cell expansion by IPP plus resiquimod, relative to IPP",[1]; PBMCs with IPP plus resiquimod and mTOR inhibitor,more prominent
